{"source": "patent US20200147064A1", "about": "“Reduction of Pro-Inflammatory HDL Using a Leukotriene Inhibitor” (Autoimmune Pharma LLC, priority 2017, published 2020)", "origin": "cited, not measured here", "tested_on": "leukotriene production", "settings": "statement in words, cited from Stock, N S et al., J Med Chem. 2011", "data": [{"smiles": "CCOc1ccc(-c2ccc(Cn3c(CC(C)(C)C(=O)O)c(SC(C)(C)C)c4cc(OCc5ccc(C)cn5)ccc43)cc2)cn1", "note": "[Compound 2-107, 3-[3-tert-butylsulfanyl-1-[4-(6-ethoxy-pyridin-3-yl)-benzyl]-5-(5-methyl-pyridin-2-ylmethoxy)-1H-indol-2-yl]-2,2-dimethyl-propionic acid]", "values": [{"measurement": "inhibitor of leukotriene production in vivo", "result": "potent inhibitor of leukotriene production in vivo"}]}]}
